Earlier results as cited in PubChem BioAssay AID1259410 (Chemical Carcinogenesis Research Information System (CCRIS), 2018).

Tested on: rodent tumor promotion studies, tumor incidence
Experiment: CCRIS tumor promotion studies

SMILES: CCCCN(CCCC)N=O
- outcome (Carcinogen: DIETHYLNITROSAMINE, 55-18-5, N-METHYLNITROSOUREA, 684-93-3, DIHYDROXY-DI-N- PROPYLNITROSAMINE, 53609-64-6, Carcinogen: DIETHYLNITROSAMINE, 55-18-5, N-METHYLNITROSOUREA, 684-93-3, DIHYDROXY-DI-N- PROPYLNITROSAMINE, 53609-64-6, Doses [Carcinogen]: 100 MG/KG IN SALINE AT BEGINNING OF STUDY, 20 MG/KG IN CITRATE BUFFERED SOLUTION ON D 2, 5, 8 AND 11, 0.1% IN DRINKING, Doses [Carcinogen]: 100 MG/KG IN SALINE AT BEGINNING OF STUDY, 20 MG/KG IN CITRATE BUFFERED SOLUTION ON D 2, 5, 8 AND 11, 0.1% IN DRINKING, Doses [Promoter]: 0, 50 PPM IN DRINKING WATER BEGINNING POST SEQUENTIAL CARCINOGEN TREATMENT AND CONTINUING FOR DURATION OF STUDY (STUDY D, Route [Carcinogen]: IP, IP, ORAL, Route [Carcinogen]: IP, IP, ORAL, Route [Promoter]: ORAL, Species: RAT, Strain/Sex: F344/MALE): esophagus: papilloma, squamous cell carcinoma; tongue: papilloma
- outcome (Carcinogen: DIETHYLNITROSAMINE, 55-18-5, N-METHYLNITROSOUREA, 684-93-5, DIHYDROXY-DI-N- PROPYLNITROSAMINE, 53609-64-6, Carcinogen: DIETHYLNITROSAMINE, 55-18-5, N-METHYLNITROSOUREA, 684-93-5, DIHYDROXY-DI-N- PROPYLNITROSAMINE, 53609-64-6, Doses [Carcinogen]: 100 MG/KG IN SALINE AT BEGINNING OF STUDY, 20 MG/KG IN CITRATE BUFFERED SOLUTION ON D 2, 5, 8 AND 11, 0.1% IN DRINKING, Doses [Carcinogen]: 100 MG/KG IN SALINE AT BEGINNING OF STUDY, 20 MG/KG IN CITRATE BUFFERED SOLUTION ON D 2, 5, 8 AND 11, 0.1% IN DRINKING, Doses [Promoter]: 0, 50 PPM IN DRINKING WATER BEGINNING POST SEQUENTIAL CARCINOGEN TREATMENT AND CONTINUING FOR DURATION OF STUDY (STUDY D, Route [Carcinogen]: IP, IP, ORAL, Route [Carcinogen]: IP, IP, ORAL, Route [Promoter]: ORAL, Species: RAT, Strain/Sex: F344/MALE): lung: adenoma; esophagus: papilloma

SMILES: Nc1ncn[nH]1
- outcome (Carcinogen: N-BIS(2-HYDROXYPROPYL)NITROSAMINE, Doses [Carcinogen]: 70 MG/100 G BW 1/WK FOR 4 WK, Doses [Promoter]: 2000 PPM IN DIET FOR 12 WK BEGINNING 1 WK AFTER INITIATION, Route [Carcinogen]: SUBCUTANEOUS, Route [Promoter]: ORAL, Species: RAT, Strain/Sex: WISTAR/MALE): thyroid gland: adenoma, carcinoma

SMILES: CN(C)C(=S)SSC(=S)N(C)C
- outcome (Carcinogen: 7,12-DIMETHYLBENZ[A]ANTHRACENE, 57-97-6, Doses [Carcinogen]: 52 UG IN 100 µL ACETONE ONCE, Doses [Promoter]: 0, 100 MG/KG BW IN 100 µL DMSO 3/WK FOR 51 WK BEGINNING 1 WK POST CARCINOGEN DOSE (STUDY DURATION: 52 WK), Route [Carcinogen]: DERMAL, Route [Promoter]: DERMAL, Species: MOUSE, Strain/Sex: SWISS/FEMALE): skin: tumor
- outcome (Carcinogen: 7,12-DIMETHYLBENZ[A]ANTHRACENE, 57-97-6, Doses [Carcinogen]: 52 UG IN 100 µL ACETONE ONCE, Doses [Promoter]: 0, 100 MG/KG BW IN 100 µL DMSO 3/WK FOR 51 WK BEGINNING 1 WK POST CARCINOGEN DOSE (STUDY DURATION: 52 WK), Route [Carcinogen]: DERMAL, Route [Promoter]: DERMAL, Species: MOUSE, Strain/Sex: SWISS/MALE): skin: tumor

SMILES: C=C(/C=C/C=C(/CO)[C@@H]1CC[C@]2([C@H](CCCO)/C(=C(/C)C=O)CC[C@]2(C)O)[C@@H]1O)CCC=C(C)C
- outcome (Carcinogen: 7,12-DIMETHYLBENZ[A]ANTHRACENE, 57-97-6, Doses [Carcinogen]: 100 UG ONCE, Doses [Promoter]: 0, 400 NMOL 2/WK FOR 19 WK BEGINNING 1WK POST CARCINOGEN DOSE (STUDY DURATION: 20 WK), Route [Carcinogen]: DERMAL, Route [Promoter]: DERMAL, Species: MOUSE, Strain/Sex: CD-1/FEMALE): skin: tumor

SMILES: NC(Cc1c[nH]c2ccccc12)C(=O)O (centres undefined)
- outcome (Carcinogen: 2-NAPHTHYLAMINE, Doses [Carcinogen]: DIET, Doses [Promoter]: IN DIET, Route [Carcinogen]: ORAL, Route [Promoter]: ORAL, Species: DOG, Strain/Sex: FEMALE): urinary bladder
- outcome (Carcinogen: N-(4-(5-NITRO-2-FURYL)-2-THIAZOLYL)FORMAMIDE, Doses [Carcinogen]: DIET, Doses [Promoter]: IN DIET, Route [Carcinogen]: ORAL, Route [Promoter]: ORAL, Species: RAT, Strain/Sex: F344/MALE): urinary bladder: papilloma, carcinoma

SMILES: O=C(O)O
- outcome (Carcinogen: N-BUTYL-N-(4-HYDROXYBUTYL)NITROSAMINE, 3817-11-6, Doses [Carcinogen]: 0.05% IN DRINKING WATER FOR 4 WK, Doses [Promoter]: 0, 3% IN DIET FOR 32 WK BEGINNING 3 D POST LAST CARCINOGEN DOSE (STUDY DURATION: 36 WK, 3 D), Route [Carcinogen]: ORAL, Route [Promoter]: ORAL, Species: RAT, Strain/Sex: F344/MALE): urinary bladder: papilloma, carcinoma
- outcome (Carcinogen: N-BUTYL-N-(4-HYDROXYBUTYL)NITROSAMINE, 3817-11-6, Doses [Carcinogen]: 0.05% IN DRINKING WATER FOR 4 WK, Doses [Promoter]: 0, 3.36% IN DIET BEGINNING POST LAST CARCINOGEN DOSE AND CONTINUING FOR 32 WK (STUDY DURATION: 37 WK), Route [Carcinogen]: ORAL, Route [Promoter]: ORAL, Species: RAT, Strain/Sex: WISTAR/MALE): urinary bladder: papilloma
- outcome (Carcinogen: N-BUTYL-N-(4-HYDROXYBUTYL)NITROSAMINE; 3817-11-6; Doses [Carcinogen]: 0.05% IN DRINKING WATER FOR 4 WK; Doses [Promoter]: 0; 4% IN DIET BEGINNING POST LAST CARCINOGEN DOSE AND CONTINUING FOR 32 WK STUDY DURATION: 37 WK), Route [Carcinogen]: ORAL, Route [Promoter]: ORAL, Species: RAT, Strain/Sex: WISTAR/MALE): urinary bladder: papilloma
- outcome (Carcinogen: O-PHENYLPHENOL, 90-43-7, Doses [Carcinogen]: 1.25% IN DIET FOR 104 WK, Doses [Promoter]: 0, 0.16% IN DIET FOR 104 WK (STUDY DURATION: 104 WK), Route [Carcinogen]: ORAL, Route [Promoter]: ORAL, Species: RAT, Strain/Sex: F344/MALE): bladder: carcinoma
- outcome (Carcinogen: O-PHENYLPHENOL, 90-43-7, Doses [Carcinogen]: 1.25% IN DIET FOR 104 WK, Doses [Promoter]: 0, 0.32% IN DIET FOR 104 WK (STUDY DURATION: 104 WK), Route [Carcinogen]: ORAL, Route [Promoter]: ORAL, Species: RAT, Strain/Sex: F344/MALE): bladder: carcinoma
- outcome (Carcinogen: O-PHENYLPHENOL, 90-43-7, Doses [Carcinogen]: 1.25% IN DIET FOR 104 WK, Doses [Promoter]: 0, 0.64% IN DIET FOR 104 WK (STUDY DURATION: 104 WK), Route [Carcinogen]: ORAL, Route [Promoter]: ORAL, Species: RAT, Strain/Sex: F344/MALE): bladder: carcinoma

SMILES: C=Cc1c(C)c2[n-]c1=CC1=NC(=CC3=C(C)C(=C([O-])[O-])C(=N3)C(CC(=O)[O-])=C3N=C(C=2)C(C)C3CCC(=O)[O-])C(CC)=C1C.[Cu+2].[Na+].[Na+].[Na+] (centres undefined)
- outcome (Carcinogen: 1,2-DIMETHYLHYDRAZINE, 540-73-8, Doses [Carcinogen]: 20 MG/KG/BW 1/WK FOR 5 WK, Doses [Promoter]: 0, 1.5 MILLIMOLAR IN DRINKING WATER BEGINNING POST CARCINOGEN TREATMENT AND CONTINUING FOR DURATION OF STUDY (STUDY DURA, Route [Carcinogen]: INTRAPERITONEAL, Route [Promoter]: ORAL, Species: RAT, Strain/Sex: F344/MALE): colorectal: tumor
- outcome (Carcinogen: 1,2-DIMETHYLHYDRAZINE, 540-73-8, Doses [Carcinogen]: 20 MG/KG/BW 1/WK FOR 5 WK, Doses [Promoter]: 0, 1.5 MILLIMOLAR IN DRINKING WATER THROUGHOUT THE STUDY (STUDY DURATION: 25 WK), Route [Carcinogen]: INTRAPERITONEAL, Route [Promoter]: ORAL, Species: RAT, Strain/Sex: F344/MALE): colorectal: tumor

SMILES: CC(O)(CS(=O)(=O)c1ccc(F)cc1)C(=O)Nc1ccc(C#N)c(C(F)(F)F)c1 (centres undefined)
- outcome (Carcinogen: 3,2'-DIMETHYL-4-AMINOBIPHENYL, 13394-86-0, Doses [Carcinogen]: 50 MG/KG BW ONCE/2 WK FOR FIRST 20 WK, Doses [Promoter]: 0, 10, 30 MG/KG BW BY GAVAGE 3X/WK FOR 40 WK BEGINNING 20 WK POST CARCINOGEN TREATMENT (STUDY DURATION: 60 WK), Doses [Promoter]: 0, 10, 30 MG/KG BW BY GAVAGE 3X/WK FOR 40 WK BEGINNING 20 WK POST CARCINOGEN TREATMENT (STUDY DURATION: 60 WK), Route [Carcinogen]: SUBCUTANEOUS, Route [Promoter]: ORAL, Species: RAT, Strain/Sex: F344/MALE): prostate (ventral): adenocarcinoma

SMILES: CNC[C@H](O)c1cccc(O)c1
- outcome (Carcinogen: N-METHYL-N'-NITRO-N-NITROSOGUANIDINE, 70-25-7, Doses [Carcinogen]: 25 UG/ML IN DRINKING WATER FOR 20 WK, Doses [Promoter]: 0, 6 MG/KG BW IN OLIVE OIL 1/2 D BEGINNING POST CARCINOGEN TREATMENT (STUDY DURATION: 52 WK), Route [Carcinogen]: ORAL, Route [Promoter]: SUBCUTANEOUS, Species: RAT, Strain/Sex: WISTAR/MALE): stomach: adenocarcinoma
- outcome (Carcinogen: N-METHYL-N'-NITRO-N-NITROSOGUANIDINE, 70-25-7, Doses [Carcinogen]: 25 UG/ML IN DRINKING WATER FOR 25 WK, Doses [Promoter]: 0, 6 MG/KG BW 1/2 D FOR 27 WK BEGINNING POST CARCINOGEN TREATMENT (STUDY DURATION: 52 WK), Route [Carcinogen]: ORAL, Route [Promoter]: SUBCUTANEOUS, Species: RAT, Strain/Sex: WISTAR/MALE): glandular stomach: adenocarcinoma
